{"source": "ChEMBL document CHEMBL3832082", "about": "“DailyMed|setid=a9a12198-b016-42ae-b9dc-d98fead7b79e | CARVEDILOL- carvedilol tablet, film coated|REMEDYREPACK INC”", "key": {"[1]": {"test": "(§1) Pharmacokinetic parameters for Carvedilol following oral administration of Carvedilol tablets.", "assay_type": "ADME, organism-based", "conditions": "human, in vivo, dosed compound id 39, dosed compound name CARVEDILOL, tissue Plasma"}, "Homo sapiens": {"test_system": "Homo sapiens", "test": "as §1", "assay_type": "ADME, organism-based", "conditions": "in vivo, po, dosed compound id 39, dosed compound name CARVEDILOL, tissue Plasma"}}, "data": [{"smiles": "COc1ccccc1OCCNCC(O)COc1cccc2[nH]c3ccccc3c12", "note": "(stereo not given) [CARVEDILOL]", "values": [{"measurement": "half-life", "setting": "[1]; gender male and female, read-out: t1/2(app)", "value": "5 to 9", "unit": "h"}, {"measurement": "CL/F", "setting": "[1]", "value": "500 to 700", "unit": "mL/min"}, {"measurement": "bioavailability", "setting": "[1]", "value": "25 to 35", "unit": "%"}, {"measurement": "t1/2(app)", "setting": "Homo sapiens; gender male and female", "value": "7 to 11", "unit": "h"}, {"measurement": "Vss", "setting": "Homo sapiens", "value": 115, "unit": "L"}]}]}
